This is an account of results in article PMC6995600, “Effects of Synergistic Inhibition on α-glucosidase by Phytoalexins in Soybeans” (Biomolecules, 2019).

Test [1] concerns α-glucosidase. The arrangement: method as in PMID 24083955. The conditions noted are these: 2 μM; cited from earlier work.
Test [2] addresses T1, α-Glucosidase (from baker’s yeast) (Saccharomyces cerevisiae, UniProt P53341).
T1 construct: purchased Sigma-Aldrich #63231-63-0
Description: Enzyme kinetics for α-glucosidase (Michaelis–Menten, Lineweaver–Burk, Dixon plot). The test is classed as biochemical. The conditions noted are these: for Mode of Inhibition: Lineweaver–Burk plots. How it is done:
The enzyme reaction was performed according to the above reaction conditions with polyphenols at various concentrations (1–30 μM). pNPG (1 mM) was added with polyphenols in 96-well plates, and α-glucosidase (1 U/mL) was added to initiate the enzyme reaction. The absorbances for each concentration of pNPG were then obtained by spectrophotometry (Victor3, PerkinElmer, Waltham, MA, USA). The inhibition modes of the polyphenols were determined using Michaelis–Menten and Lineweaver–Burk equations [23, 24]. The inhibition constant Ki is an indication of the potency of an inhibitor and equals the concentration required to produce half-maximal inhibition and can be determined by a Dixon plot. […] The αKi value is the inhibitor constant when the inhibitor (I) occupies the enzyme–substrate (ES) complex.
To define the mode of inhibition of the polyphenols, enzyme kinetics were performed with designated concentrations of pNPG. The maximum velocity (Vmax) for α-glucosidase was calculated from the nonlinear regression curve with five different concentrations of substrate (Figure 2). To determine the inhibition modes, Lineweaver–Burk plots were constructed for each of the inhibition modes, and the most suitable mode was selected using SigmaPlot 10.0 software.
Meanwhile, the inhibitor constant Ki indicates the potency of an inhibitor and is expressed as the concentration required to produce half-maximal inhibition and is determined by a Dixon plot. The initial slope v was determined for each concentration of each polyphenol. The reciprocal velocity (1/v) versus the […] (for 0.25, 0.5, 1, and 2 mM pNPG) was plotted. A single regression line for each concentration of the substrate was obtained, and Ki was calculated from the intersection of the four lines.

Test [3] concerns the target T1, α-Glucosidase (from baker’s yeast). Description: biochemical. How it is done:
Synergistic effects on α-glucosidase inhibition were measured using the same methods as above. […] We calculated the IC50 values of each polyphenol and the combinations, and we used the statistical differences of these values to assess synergistic effects.

Test [4] shares this target. The test is described as follows: biochemical. Here is the method:
The activity of α-glucosidase was measured as described previously, with slight modifications. In brief, sodium phosphate buffer (0.1 M) was adjusted to 0.1 N HCl to pH 7.0 with a pH meter (Thermo Fisher Scientific Inc., Waltham, MA, USA). Solutions of pNPG (10 mM) and α-glucosidase (1 U/mL) were solubilized in 0.1 M sodium phosphate buffer (pH 7.0). All reagents were prepared shortly before use and warmed to 37 °C in a water bath (Il-shin Biobase, Pocheon, Korea). […] The substrate, pNPG (N1377, Sigma), was added into each well to a final concentration of 1 mM in a total volume of 200 μL, and 100 μL of α-glucosidase (1 U/mL) per well was then added. […] The absorbance values were plotted against time, and the rate (velocity) of product generation (α-glucosidase activity) was calculated from the linear range of the graph.
This is another data set of the same source.

[5] abbreviates: Substrate PNPG 0.125 mM, read-out: IC50.
Where [6] appears, read: Substrate PNPG 0.25 mM, read-out: IC50.
The mark [7] stands for this setting: Substrate PNPG 0.5 mM, read-out: IC50.
Setting [8] is: Substrate PNPG 1 mM, read-out: IC50.
The mark [9] stands for this setting: pNPG 1 mM, pH 7.0, 37 °C, read-out: half-maximal inhibitory concentrations (IC50).

Read-outs that look alike come from different tables or passages of the source.

T1 sequence (P53341 whole entry): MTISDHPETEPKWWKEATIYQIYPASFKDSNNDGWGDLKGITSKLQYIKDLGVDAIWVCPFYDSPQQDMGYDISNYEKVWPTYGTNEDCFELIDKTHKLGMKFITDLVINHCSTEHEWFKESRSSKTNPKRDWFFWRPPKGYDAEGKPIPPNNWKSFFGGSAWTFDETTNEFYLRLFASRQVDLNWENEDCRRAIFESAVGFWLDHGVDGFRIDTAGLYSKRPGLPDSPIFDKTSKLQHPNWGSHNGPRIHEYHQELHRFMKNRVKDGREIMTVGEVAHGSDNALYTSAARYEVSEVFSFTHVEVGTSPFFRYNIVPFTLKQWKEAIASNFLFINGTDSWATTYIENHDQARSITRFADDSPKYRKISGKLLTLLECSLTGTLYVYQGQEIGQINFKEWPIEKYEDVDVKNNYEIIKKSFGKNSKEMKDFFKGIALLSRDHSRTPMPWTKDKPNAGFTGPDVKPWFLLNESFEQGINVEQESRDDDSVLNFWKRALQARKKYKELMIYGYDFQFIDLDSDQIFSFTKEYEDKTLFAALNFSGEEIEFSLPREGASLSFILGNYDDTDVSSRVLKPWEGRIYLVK

Take `O=c1c2cc(O)ccc2oc2cc(O)cc(O)c12` [1,3,7-trihydroxyxanthone]: the inhibition entry in test [1] is “approximately 15%”.
Regarding `C[C@H]1O[C@H](O[C@H]2[C@H](O)[C@@H](O)[C@@H](O[C@H]3[C@H](O)[C@@H](O)C(O)O[C@@H]3CO)O[C@@H]2CO)[C@H](O)[C@@H](O)[C@@H]1N[C@H]1C=C(CO)[C@@H](O)[C@H](O)[C@H]1O` (some centres unmarked) [Acarbose, acarbose, reference compound], the “Mode of Inhibition” value in test [2] was “Competitive”.
`O=c1c(-c2ccc(O)cc2)coc2cc(O)ccc12` [Daidzein, daidzein]: in test [2], the “Mode of Inhibition” value is “Uncompetitive”. Further, the IC50 in test [3] (IC50, Substrate PNPG 0.125 mM) came out at 59.2 ± 6.1 µM; in test [3] (IC50, Substrate PNPG 0.25 mM), 27.6 ± 2.93 µM; in test [3] (IC50, Substrate PNPG 0.5 mM), 23.2 ± 1.04 µM; in test [3] (IC50, Substrate PNPG 1 mM), 20.5 ± 1.82 µM; in test [4] it was 20.2 ± 6.17 µM.
One may read the Ki as the dissociation constant of the complex between target and ligand, obtained from inhibition or displacement. Read a high Ki as a looser hold on the target. `CC1(C)C=Cc2c(ccc3c2OC[C@@]2(O)c4ccc(O)cc4O[C@@H]32)O1` [Glyceollin, glyceollin] showed a Ki in test [2] of 19 ± 4.45 µM. In addition, the entries for the “Mode of Inhibition” value in test [2] and in test [2] (listed as glyceollin) were “Competitive” and “competitive inhibition”, respectively. Besides, the IC50 was 16.6 ± 3.25 µM in test [3] (setting [5]); 16.57 ± 0.15 µM in test [3] (setting [6]); 19.1 ± 0.96 µM in test [3] (setting [7]); 33.2 ± 3.97 µM in test [3] (setting [8]); 13.2 ± 2.31 µM in test [4] (setting [9]).
`O=c1cc(-c2ccc(O)c(O)c2)oc2cc(O)cc(O)c12` [Luteolin, luteolin] had a Ki in test [2] of 16.8 ± 9.6 µM. Besides, the “Mode of Inhibition” value in test [2] was “Mixed”. Also, the IC50 in test [3] (setting [5]) is 18.6 ± 1.2 µM; in test [3] (setting [6]) it was 14.82 ± 0.01 µM; in test [3] (setting [7]), 15.4 ± 1.99 µM; in test [3] (setting [8]), 19.5 ± 1.59 µM; in test [4] (setting [9]), 11.9 ± 1.63 µM.
